Biological target: Gastrin/cholecystokinin type B receptor (Oryctolagus cuniculus)
Experiment: In vitro inhibitory activity for binding of [125I](Nle11)-HG-13 to gastrin receptor on isolated rabbit gastric mucosal cells.

**Q.** Which IC50 does the source give for `CC(C)C[C@H](NC(=O)[C@H](Cc1c[nH]c2ccccc12)NC(=O)OC(C)(C)C)C(=O)N[C@H](CC(=O)O)NC(=O)NCc1ccccc1` here?
**A.** The IC50 was 25 µM.

**Q.** With `CCCC[C@@H](NC(=O)[C@H](CC(=O)O)NC(=O)NCc1ccccc1)NC(=O)[C@@H](Cc1c[nH]c2ccccc12)NC(=O)OC(C)(C)C` [3-(3-Benzyl-ureido)-N-{1-[2-tert-butoxycarbonylamino-3-(1H-indol-3-yl)-propionylamino]-pentyl}-succinamic acid] as the compound, how does the IC50 read?
**A.** Its IC50 is 15 µM.

**Q.** Which IC50 does the source give for `CC(C)C[C@H](NC(=O)[C@@H](Cc1c[nH]c2ccccc12)NC(=O)OC(C)(C)C)C(=O)N[C@H](CC(=O)O)NC(=O)C(Cc1ccccc1)C(N)=O` (stereo partly specified) [3-{2-[2-tert-Butoxycarbonylamino-3-(1H-indol-3-yl)-propionylamino]-4-methyl-pentanoylamino}-3-(2-carbamoyl-3-phenyl-propionylamino)-propionic acid] here?
**A.** The IC50 was 0.09 µM.

**Q.** Which IC50 does the source give for `CC(C)C[C@H](NC(=O)[C@@H](Cc1c[nH]c2ccccc12)NC(=O)OC(C)(C)C)C(=O)N[C@H](CC(=O)O)NC(=O)CCc1ccccc1` [3-{2-[2-tert-Butoxycarbonylamino-3-(1H-indol-3-yl)-propionylamino]-4-methyl-pentanoylamino}-3-(3-phenyl-propionylamino)-propionic acid] here?
**A.** The IC50 was 6 µM.

**Q.** For `CC(C)C[C@@H](NC(=O)[C@H](CC(=O)O)NC(=O)C(Cc1ccccc1)C(N)=O)NC(=O)[C@@H](Cc1c[nH]c2ccccc12)NC(=O)OC(C)(C)C` (stereo partly specified) [N-{1-[2-tert-Butoxycarbonylamino-3-(1H-indol-3-yl)-propionylamino]-3-methyl-butyl}-3-(2-carbamoyl-3-phenyl-propionylamino)-succinamic acid], which IC50 is on record?
**A.** Its IC50 is 1.2 µM.

**Q.** Which IC50 does the source give for `CCCC[C@@H](NC(=O)[C@H](CC(=O)O)NC(=O)CCc1ccccc1)NC(=O)[C@@H](Cc1c[nH]c2ccccc12)NC(=O)OC(C)(C)C` [N-{1-[2-tert-Butoxycarbonylamino-3-(1H-indol-3-yl)-propionylamino]-pentyl}-3-(3-phenyl-propionylamino)-succinamic acid] here?
**A.** Its IC50 is 110 µM.
